Measured values reported in patent publication US20230398130A1, “METHODS AND COMPOSITIONS FOR DIFFERENTIATING STEM CELLS” (Massachusetts Institute of Technology, priority 2020, published 2023).

What was measured:
[1] = In vivo oral gavage of KPT-330 every other day for two weeks: body weight; set-up: species or system C57BL/6 wild-type mice
Experimental: Following a similar protocol as previously reported for SINE treatment in the context of cancer (Arango et al., 2017; Azmi et al., 2013; Hing et al., 2016; Zheng et al., 2014), KPT-330 was administered at a dose 10 mg/kg via oral gavage every other day over a two-week span in C57BL/6 wild-type mice, and body weight was monitored for any clear toxicity. […] Given animal weight loss on the standard chemotherapeutic dosage regimen, and additional evidence that sustained dosage of SINEs adversely impacts T cell populations (Tyler et al., 2017), Applicants sought to explore dosing regimens well below 10 mg/kg, to see if a pro-Paneth phenotype may exist below potential toxicities. […] Applicants tracked animal weight every other day, and at day 14 collected the proximal and distal thirds of the small intestine for histological quantification of Paneth, stem, and goblet populations (FIG. 26A). […] Paneth cells were counted within well preserved crypts, with at minimum 30 crypts quantified per animal (representative images FIG. 30C) and then averaged to get mean Paneth cells per crypt in distal and proximal thirds of the small intestine. […] Applicants additionally quantified the abundance of Olfm4+ stem cells as well as PAS+ goblet cells within the same animals to ascertain whether the effect of SINE treatment was restricted to the Paneth cell compartment (representative images FIG. 30D,E). […]

[2] = system: human small intestinal organoids; test: Immunofluorescent imaging for LYZ, human small intestinal organoids; assay type: cell-based; conditions: 160 nM KPT-330, 6 days
Description: To extend the observations from the murine organoid system, Applicants sought to examine how XPO1 inhibition via KPT-330 may effect human small intestinal stem cells by utilizing a stem-cell enriched human small intestinal organoid model^46 (see Methods).
Immunofluorescent imaging. For immunofluorescence staining of organoids, intestinal organoids in Matrigel were fixed with 4% paraformaldehyde, then transferred to centrifuge tube. After washing with PBS, the isolated organoids were permeabilized with 1% Triton X followed by incubation with blocking buffer (1% BSA+3% Donkey Serum+0.2% Triton X in PBS) at RT. The organoids were then stained with primary antibodies and fluorescent dye-labeled secondary antibodies as well as with DAPI. Slides were covered with […] ® Mounting Media (VECTOR). […] Images were acquired with a confocal laser scanning microscope (Nikon Eclipse 90i). For the analysis of Lysozyme+ cells per organoid area, the number of counted Lysozyme+ cells were normalized to measured organoid surface area. Image J was used for the data analysis.

[3] = system: intestinal organoids; test: Population RNA-sequencing of organoids; assay type: cell-based, murine
Experimental: Population RNA-sequencing. Population RNA-seq was performed using a derivative of the Smart-Seq2 protocol for single cells. In brief, organoid media was aspirated and RLT+BME (Qiagen) was added to each well, and plate shaken for 30 minutes to fully lyse. Lysate was aliquoted into 4 identical fractions and stored at −80° C. until reverse transcription. RNA lysate was thawed and cleaned with a 2.2×SPRI ratio using Agencourt RNAClean XP beads (Beckman Coulter, A63987). RNA-seq was performed on a bulk population of […] using Smart-Seq2 chemistry, starting with a 2.2×SPRI ratio cleanup. After oligo-dT priming, Maxima H Minus Reverse Transcriptase (ThermoFisher EP0753) was used to synthesize cDNA with an elongation step at 52° C. before PCR amplification (15 cycles for tissue, 18 cycles for sorted basal cells) using KAPA HiFi PCR Mastermix (Kapa Biosystems KK2602). Sequencing libraries were prepared using the Nextera XT DNA tagmentation kit (Illumina FC-131-1096) with 250 pg input for each sample. Libraries were pooled post-Nextera and cleaned using Agencourt AMPure SPRI beads with successive 0.7× and 0.8× ratio SPRIs and sequenced with an Illumina 75 Cycle NextSeq500/550v2 kit (Illumina FC-404-2005) with loading density at 2.2 pM, with paired end 35 cycle read structure. Samples were sequenced at an average read depth of 8.44 million reads per sample and a total of 96 samples.
Organoid samples were aligned to the Mm10 genome and transcriptome using STAR and RSEM. […] For module scoring with the in vivo Paneth and enteroendocrine cell-defining genes, Applicants used previously published gene sets and computed persample module scores through the Seurat package.

[4] = system: ISC-enriched organoids; test: Secondary (validation) screen, 384-well 2.5-D, ENR+CD 6 days, n=8 wells, vs ENR+CD+DMSO control: carbachol-induced lysozyme secretion (LYZ.S); assay type: cell-based, murine

Q: For `O=C(/C=C\n1cnc(-c2cc(C(F)(F)F)cc(C(F)(F)F)c2)n1)NNc1cnccn1` [KPT-330], which body weight ([1]; 0.01, 0.05 or 0.2 mg/kg oral gavage every other day) is on record?
A: no significant changes in animal weight at any dose

Q: And the body weight ([1]; 10 mg/kg oral gavage every other day)?
A: significant weight loss indicative of toxicity

Q: And the “LYZ+ cell abundance (IF imaging)” value [2]?
A: increased LYZ+ cell abundance

Q: What about the “secretory cell identity (Paneth, goblet, EEC) from bulk transcripts” value ([3]; ENR+CV, ENR+CD or ENR organoids) of the same compound?
A: increase secretory cells (Paneth, goblet, and EEC)

Q: And the “number of differentially expressed genes” value ([3]; hits compared, ENR and ENR+CD)?
A: the most differentially expressed genes

Q: And the Z.LYZ.S ([4]; Dose 0.02 uM)?
A: −0.028

Q: What about the repSSMD.LYZ.S ([4]; Dose 0.02 uM) of the same compound?
A: −0.044

Q: What about the Z.LYZ.S ([4]; Dose 0.04 uM) of the same compound?
A: −0.587

Q: What about the repSSMD.LYZ.S ([4]; Dose 0.04 uM) of the same compound?
A: −0.955

Q: And the Z.LYZ.S ([4]; dose 0.08 uM)?
A: 1.031

Q: And the repSSMD.LYZ.S ([4]; dose 0.08 uM)?
A: 1.678

Q: And the “increase in LYZ.S (stimulated LYZ secretion) relative to ENR+CD control” value ([4]; validated doses, secondary screen)?
A: 50-75%
